The values that follow come from patent US9809604B2, “DGAT1 inhibitor and preparation method and use thereof” (Qingdao Huanghai Pharmaceutical Co., Ltd., priority 2013, dated 2017).

Converted amounts (≈) assume the structure as drawn. Where two headings read alike, the source gives them in different places.

For one data set, the target named is T1, mouse DGAT1 (Mus musculus, UniProt Q9Z2A7).
T1 construct: made in house
T1 sequence (Q9Z2A7 1-498): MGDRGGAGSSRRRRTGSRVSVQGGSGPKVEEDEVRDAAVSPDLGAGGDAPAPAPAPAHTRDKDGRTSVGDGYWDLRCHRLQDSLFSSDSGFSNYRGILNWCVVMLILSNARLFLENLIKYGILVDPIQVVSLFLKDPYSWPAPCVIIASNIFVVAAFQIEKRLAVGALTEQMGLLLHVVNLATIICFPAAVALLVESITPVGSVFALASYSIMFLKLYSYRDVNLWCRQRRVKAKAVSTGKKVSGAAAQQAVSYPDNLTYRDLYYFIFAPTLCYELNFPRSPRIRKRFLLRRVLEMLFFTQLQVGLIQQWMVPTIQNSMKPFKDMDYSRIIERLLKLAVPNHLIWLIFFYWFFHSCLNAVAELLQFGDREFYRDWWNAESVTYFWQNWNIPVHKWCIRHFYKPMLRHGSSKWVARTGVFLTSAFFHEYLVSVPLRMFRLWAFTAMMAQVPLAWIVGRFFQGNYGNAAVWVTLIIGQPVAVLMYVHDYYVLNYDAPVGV
The data set can be described thus: Mouse DGAT1 IC50 enzymatic assay. Type of data set: biochemical. The method, then: Expressing human DGAT1 enzyme, used diacylglycerol and 14C-labeled acyl-CoA as the substrate, choose PE Company Flashplate testing board to build DGAT1 enzyme reaction system. 14C-labeled acyl-CoA binds to diacylglycerol by covalent bonding after enzymology reaction, and generates the product of 14C-labeled triglyceride. 14C-labeled acyl-CoA substrate is dissolved in reaction solution and 14C-labeled triglyceride product combine with phospholipids of Flashplate plate bottom layer, thus effectively separate labeled substrates and products. The radioactive of 14C-labeled triglyceride which is combined with phospholipid layer is counted, and the potencies of DGAT-1 inhibition for the compounds are determined by calculating the IC50 values.
Mouse DGAT1 activity was determined as follows:
Mouse DGAT1 IC50 determination method: in addition to expression of mouse DGAT1, experiment method with human DGAT1 enzymatic assay is the same.

A short description of a further data set: Solubility at pH 7.4. Type of data set: physicochemical. To be noted: pH 7.4, aqueous buffer; read-out: Sol pH 7.4.
Data set [1] can be described thus: Plasma pharmacokinetics in male SD rats. The note with it: rat; for AUC(0-t) / half-life / Vd / bioavailability: male, SD, plasma; for AUC(0-t): read-out: AUC0-1 (ng · n/mL); for half-life: read-out: T1/2 (b) (converted); for Vd: intravenous, 2 mg/kg, read-out: Vdss; for bioavailability: oral, 10 mg/kg. Type of data set: in vivo. The method, then: (3) Pharmacokinetics of Test Compounds
The purpose of this study is to determine the plasma pharmacokinetics of male SD rats. Two animals will receive a solution of test article in vehicle by single intravenous bolus via tail vein; the dosage is 2 mg/kg. Blood samples are taken at specified time points (0, 0.0833, 0.25, 0.5, 1, 2, 4, 7, 24 h) after dosing. Another two animals will receive a solution or suspension of TA in vehicle by oral gavage at 10 mg/kg. The schedule for sample collection is 0.5, 1, 2, 3, 4, 6, 24 h after dosing. A LC/MS/MS method is used to measure the concentration of test compound in plasma. Non-compartmental pharmacokinetic analysis is performed on the plasma concentration-time data. PK parameters of calculations are done using Phoenix WinNonlin. 6.2.1 software program.

For data set [2], the system named is plasma triacylglycerol levels. The data set can be described thus: Lipid tolerance test in mice. Type of data set: in vivo. The method, then:
(1) Lipid Tolerance Test in Mice:
CDI mice (30 g or so) were individually housed in hanging wire cages at 20-25° C. with a 12:12 hour light:dark cycle (Humidity: 40˜70%). The mice had ad libitum access to water. On the day of experimentation, food jars were removed from each cage 16 hours prior to rate received either vehicle or test article based on a randomization plan generated by randomization. After sixty minutes, oral administration (gavage) of corn oil at a dose volume of 6 mL/kg (time=0). Blood samples were obtained from each mouse via tail snip procedure at −0.5, 0.5, 1, 2 and 4 hours. 20 ul of blood sampling will be rapidly collected, and then is centrifuged at 7000 rpm for 10 min to determine plasma triacylglycerol levels. Triglyceride was quantitated using TG ELISA kit. All data will be analyzed using SPSS. p<0.05 is considered to be statistically significant.

A short description of data set [3]: Diet induced obesity in mice. To be noted: DIO mice. The class given is in vivo. As for the experimental part:
(2) Diet Induced Obesity in Mice
Male C57bl/6J mice (6 weeks) were individually housed in hanging wire cages at 20-25° C. with a 12:12 hour light:dark cycle (Humidity: 40˜70%). After one week acclimation, the mice are fed with high fat pelleted diet (D12492i, Research Diets, Inc) and fresh water, ad libitum. Typically; C57BL/6J male mice become obese, and reach 40-50 g after 12-14 weeks of high fat diet treatment.
Animals accept oral gavages acclimation for two weeks. Then next, they are dosed with test articles or vehicle (bid) accordingly for 7 day. Food intake and body weight are recorded every day. Data are graphed by Graph Pad Prism 5.0 and evaluated using SPSS, p<0.05 is considered to be statistically significant.

The target of data set [4] is T2, DGAT1 (Homo sapiens, UniProt O75907).
T2 sequence (O75907 1-488): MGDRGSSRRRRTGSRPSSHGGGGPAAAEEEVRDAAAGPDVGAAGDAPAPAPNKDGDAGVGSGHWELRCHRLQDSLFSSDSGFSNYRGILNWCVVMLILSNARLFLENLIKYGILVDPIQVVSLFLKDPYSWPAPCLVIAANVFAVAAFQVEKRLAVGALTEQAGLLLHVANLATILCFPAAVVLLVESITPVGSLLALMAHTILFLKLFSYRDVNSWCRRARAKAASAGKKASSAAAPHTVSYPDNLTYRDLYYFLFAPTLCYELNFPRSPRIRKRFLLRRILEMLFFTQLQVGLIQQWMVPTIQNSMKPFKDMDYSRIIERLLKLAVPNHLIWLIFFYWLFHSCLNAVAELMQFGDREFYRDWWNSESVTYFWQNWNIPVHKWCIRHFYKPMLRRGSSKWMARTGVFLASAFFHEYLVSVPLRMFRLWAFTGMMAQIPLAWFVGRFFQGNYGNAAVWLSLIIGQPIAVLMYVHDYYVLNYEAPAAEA
The data set is described as follows: Human DGAT1 IC50 enzyme assay (Flashplate, 14C-labeled acyl-CoA). The class given is biochemical. On the set-up: made in house. The gist of the method:
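Radiometric Flashplate format: expressed human DGAT1 transfers 14C-acyl from acyl-CoA onto diacylglycerol, and labeled triglyceride binding the plate's phospholipid layer is counted. Potency reported as IC50; Ki calculated as IC50/(1+[S]/Km).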

Data set [5] deals with T2, DGAT1. The data set is described as follows: In vitro assay in HEK-293 cells (13C-labeled oleic acid incorporation into TG, LC/MS/MS). Type of data set: cell-based. The note with it: for EC50: HEK293 cells. Further details: endogenous DGAT1-expressing catalytic ^13C-labeled oleic acid incorporate to TG; endogenous in cells; host or cells: HEK293. From the text:
In Vitro Assay in HEK-293 Cells:
We treated HEK293 cells with stable isotope ^13C-labeled oleic acid and endogenous DGAT1-expressing catalytic ^13C-labeled oleic acid incorporate to TG. The extraction and separation of cell suspension is to obtain the triglycerides composition. A LC/MS/MS method is used to measure the concentration of ^13C in TG to determine catalytic reaction rate of DGAT1, then determine the compound of DGAT1 inhibition (IC50).

[6] abbreviates: iv, 1.78-2.06 mg/kg as printed in each cell.
Where [7] appears, read: average of first and second, read-out: hDGAT1 IC50(nM) Average.
[8] abbreviates: first determination, read-out: hDGAT1 IC50(nM) First.
[9] abbreviates: second determination, read-out: hDGAT1 IC50(nM) Second.

By IC50 is commonly meant the concentration needed to halve the response being measured. A word on the EC50: it is the midpoint of the concentration-response curve. Read a low EC50 as greater potency. `Cc1cc(N2CCOc3ncnc(N)c3C2=O)cc(C)c1-c1cn(CC(F)(F)F)nc1C` [Compound 41, 4-amino-6-(3,5-dimethyl-4-(3-methyl-1-(2,2,2-trifluoroethyl)-1H-pyrazol-4-yl)phenyl)-7,8-dihydropyrimido[5,4-f][1,4]oxazepin-5(6H)-one] came in with an IC50 against mouse DGAT1 of 12.5 nM. Also, the solubility in “Solubility at pH 7.4” was 187 µM (≈ 83.5 µg/mL). The AUC(0-t) in data set [1] (setting [6]) was 2120 ng·h/mL. The half-life in data set [1] (po, 8.94-9.33 mg/kg) was 3.2 h. In data set [1], the Vd is 1.49 L/kg, the bioavailability was roughly 100% and the “CI” value is 14.4 mL/min/kg. Moreover, the “Inhibtion % @ 2 h 1 MPK PO” value in data set [2] was determined as 83% inh. Moreover, in data set [3] (10mpk BID), the “7 days Cumulative Body Weight Change (%)” value is −3.32% and the “7 days Cumulative Food Intake Change (%)” value is listed as −16.35%. For the same compound, the IC50 at DGAT1 [4] (setting [7]) was 31.3 nM. Also, the IC50 at DGAT1 [4] (setting [8]) turned out to be 37.7 nM. The IC50 on DGAT1 [4] (setting [9]) came to 30 nM. The EC50 on DGAT1 [5] turned out to be 22.1 nM.

For `Cc1cc(N2CCOc3ncnc(N)c3C2=O)cc(C)c1-c1ccc2ccn(CC(F)(F)F)c(=O)c2c1` [Compound 105, 4-amino-6-(3,5-dimethyl-4-(1-oxo-2-(2,2,2-trifluoroethyl)-1,2-dihydroisoquinolin-7-yl)phenyl)-7,8-dihydropyrimido[5,4-f][1,4]oxazepin-5-(6H)-one], the IC50 came out at 33.6 nM against mouse DGAT1, 31.7 nM on DGAT1 [4] (setting [7]), 27 nM on DGAT1 [4] (setting [8]) and 36.4 nM at DGAT1 [4] (setting [9]). In addition, the solubility in “Solubility at pH 7.4” came out at 70 µM (≈ 35.7 µg/mL). In addition, the AUC(0-t) in data set [1] (setting [6]) was 17700 ng·h/mL. For the same compound, the half-life is 3.81 h in data set [1] (setting [6]) and 2.93 h in data set [1] (po, 8.94-9.33 mg/kg). Besides, the Vd in data set [1] amounted to 0.54 L/kg. Further, the bioavailability in data set [1] is 56.8%. Also, the “CI” value in data set [1] is on record as 1.96 mL/min/kg. Moreover, the “Inhibtion % @ 2 h 1 MPK PO” value in data set [2] amounted to 118% inh. Moreover, the “7 days Cumulative Body Weight Change (%)” value in data set [3] (10mpk BID) is listed as −1.06%. The “7 days Cumulative Food Intake Change (%)” value in data set [3] (10mpk BID) was −8.56%. On DGAT1 [5], the EC50 was determined as 3.64 nM. For the same compound, the cell activity result at DGAT1 [5] (compared with Pradigastat) was “better cell activity”.

As for `Nc1ncnc2c1C(=O)N(c1ccc([C@H]3CC[C@H](CC(=O)O)CC3)cc1)CCO2` [PF-04620110, reference compound], in data set [1] (setting [6]), the AUC(0-t) turned out to be 2920 ng·h/mL. Also, in data set [1], the bioavailability is 109%.

`O=C(O)C[C@H]1CC[C@H](c2ccc(-c3ccc(Nc4ccc(C(F)(F)F)nc4)cn3)cc2)CC1` [Pradigastat, reference compound] came in with an IC50 against mouse DGAT1 of 30.2 nM. Further, in “Solubility at pH 7.4”, the solubility was 22 µM (≈ 10 µg/mL). In addition, in data set [1] (setting [6]), the AUC(0-t) turned out to be 42900 ng·h/mL and the half-life was 2.19 h. Also, in data set [1] (po, 8.94-9.33 mg/kg), the half-life is 2.33 h. Moreover, in data set [1], the Vd came out at 0.15 L/kg, the bioavailability worked out at 14.9% and the “CI” value is given as 0.70 mL/min/kg. For the same compound, the “Inhibtion % @ 2 h 1 MPK PO” value in data set [2] came out at 34% inh. Also, in data set [3] (30 mpk BID), the body weight entry is “increased slight” and the food intake entry is given as “increased slight”. For the same compound, in data set [3] (30mpk BID), the “7 days Cumulative Body Weight Change (%)” value turned out to be 1.72% and the “7 days Cumulative Food Intake Change (%)” value was 5.85%. The IC50 at DGAT1 [4] (setting [7]) was determined as 49 nM. The IC50 at DGAT1 [4] (setting [8]) came to 68.2 nM. The half-inhibitory concentration (IC50) on DGAT1 [4] (setting [9]) was determined as 29.7 nM. The compound also came in with an EC50 on DGAT1 [5] of 3.65 nM.
